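Results reflect a 48-hour exposure of cells in 96-well plates to compound at five concentrations. At the GI50, growth is halved.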 Calls of active or inactive are those of the source. Rule as the data show it: active = GI50 up to about 1.1 µM and inactive = higher.
Columns and labels:
Assay in all cases: inhibition of tumour cell growth, NCI panel, 48 h
T47D = system: T47D
NCI-H226 = system: NCI-H226
SK-MEL-2 = system: SK-MEL-2
SNB-75 = system: SNB-75
SK-OV-3 = system: SK-OV-3
HOP-92 = system: HOP-92
CCRF-CEM = system: CCRF-CEM
SK-MEL-5 = system: SK-MEL-5
RPMI-8226 = system: RPMI-8226
Malme-3M = system: Malme-3M
IGROV-1 = system: IGROV-1
SNB-19 = system: SNB-19
UACC-62 = system: UACC-62
SN12C = system: SN12C
HCT-116 = system: HCT-116
MCF7 = system: MCF7
SW-620 = system: SW-620
KM12 = system: KM12
HT-29 = system: HT-29
CAKI-1 = system: CAKI-1
EKVX = system: EKVX
M14 = system: M14
786-0 = system: 786-0
SF-539 = system: SF-539
OVCAR-3 = system: OVCAR-3
NCI-H522 = system: NCI-H522
MDA-N = system: MDA-N
UACC-257 = system: UACC-257
PC-3 = system: PC-3
MDA-MB-435 = system: MDA-MB-435
A549 = system: A549
RXF 393 = system: RXF 393
HCC 2998 = system: HCC 2998
HCT-15 = system: HCT-15
SR = system: SR
ACHN = system: ACHN
NCI-H23 = system: NCI-H23
OVCAR-4 = system: OVCAR-4
A498 = system: A498
HOP-62 = system: HOP-62
SK-MEL-28 = system: SK-MEL-28
LOX IMVI = system: LOX IMVI
OVCAR-5 = system: OVCAR-5
BT-549 = system: BT-549
Hs-578T = system: Hs-578T
NCI-H460 = system: NCI-H460
UO-31 = system: UO-31
COLO 205 = system: COLO 205
NCI/ADR-RES = system: NCI/ADR-RES
OVCAR-8 = system: OVCAR-8
U-251 = system: U-251
MDA-MB-231 = system: MDA-MB-231
K562 = system: K562
TK-10 = system: TK-10
SF-268 = system: SF-268
SF-295 = system: SF-295
DU-145 = system: DU-145
MOLT-4 = system: MOLT-4

In the case of `CC1=NOC(=O)/C1=C/c1ccc2c(c1)OCO2`, the GI50 (T47D) is reported as > 100 µM (inactive), the GI50 (NCI-H226) is reported as 21.6 µM (inactive) and the GI50 (SK-MEL-2) is reported as 19.6 µM (inactive). For the same compound, the GI50 (SNB-75) was 22.1 µM (inactive), the GI50 (SK-OV-3) was > 100 µM (inactive) and the GI50 (HOP-92) was 30.2 µM (inactive). The GI50 (CCRF-CEM) was 20.7 µM (inactive), the GI50 (SK-MEL-5) was 34.1 µM (inactive) and the GI50 (RPMI-8226) was 21.8 µM (inactive). For the same compound, the GI50 (Malme-3M) was 43.6 µM (inactive), the GI50 (IGROV-1) was 25.2 µM (inactive) and the GI50 (SNB-19) was 30.7 µM (inactive). The GI50 (UACC-62) was 21.5 µM (inactive), the GI50 (SN12C) was 25.4 µM (inactive) and the GI50 (HCT-116) was 34 µM (inactive). For the same compound, the GI50 (MCF7) was 30.2 µM (inactive), the GI50 (SW-620) was 21.1 µM (inactive) and the GI50 (KM12) was 19.1 µM (inactive). For the same compound, the GI50 (HT-29) was 24.4 µM (inactive), the GI50 (CAKI-1) was 17.3 µM (inactive) and the GI50 (EKVX) was 77.3 µM (inactive). The GI50 (M14) was 35.3 µM (inactive), the GI50 (786-0) was 21.9 µM (inactive) and the GI50 (SF-539) was 24.3 µM (inactive). The GI50 (OVCAR-3) was 30.2 µM (inactive), the GI50 (NCI-H522) was 38.5 µM (inactive) and the GI50 (MDA-N) was 32.3 µM (inactive). For the same compound, the GI50 (UACC-257) was 73.5 µM (inactive), the GI50 (PC-3) was 21 µM (inactive) and the GI50 (MDA-MB-435) was 23.4 µM (inactive). For the same compound, the GI50 (A549) was 61.8 µM (inactive), the GI50 (RXF 393) was 16 µM (inactive) and the GI50 (HCC 2998) was 28.9 µM (inactive). For the same compound, the GI50 (HCT-15) was 20.8 µM, the GI50 (SR) was 15.9 µM (inactive) and the GI50 (ACHN) was 19.1 µM (inactive). The GI50 (NCI-H23) was 37.3 µM (inactive), the GI50 (OVCAR-4) was 63.1 µM (inactive) and the GI50 (A498) was 26.3 µM (inactive). For the same compound, the GI50 (HOP-62) was 19.2 µM (inactive), the GI50 (SK-MEL-28) was 30.8 µM (inactive) and the GI50 (LOX IMVI) was 19 µM (inactive). The GI50 (OVCAR-5) was 37.1 µM (inactive), the GI50 (BT-549) was 24 µM (inactive) and the GI50 (Hs-578T) was 39.5 µM (inactive). For the same compound, the GI50 (NCI-H460) was 35.1 µM (inactive), the GI50 (UO-31) was 21.1 µM (inactive) and the GI50 (COLO 205) was 17.7 µM (inactive). For the same compound, the GI50 (NCI/ADR-RES) was 39.5 µM (inactive), the GI50 (OVCAR-8) was 25.4 µM (inactive) and the GI50 (U-251) was 18.7 µM (inactive). The GI50 (MDA-MB-231) was 24.5 µM (inactive), the GI50 (K562) was 55.3 µM (inactive) and the GI50 (TK-10) was 39.2 µM (inactive). The GI50 (SF-268) was 34.8 µM (inactive), the GI50 (SF-295) was 26.7 µM (inactive) and the GI50 (DU-145) was 25.1 µM (inactive).
`C[N+]1(Cc2ccc(Cl)c(Cl)c2)CCCC1C1CCCN(Cc2ccc(Cl)c(Cl)c2)C1` (stereo not drawn) was tested, and the GI50 (T47D) was > 100 µM (inactive), the GI50 (SK-MEL-2) was > 100 µM (inactive) and the GI50 (SNB-75) was > 100 µM (inactive). The GI50 (SK-OV-3) was > 100 µM (inactive), the GI50 (HOP-92) was > 100 µM (inactive) and the GI50 (SK-MEL-5) was 32.2 µM (inactive). The GI50 (RPMI-8226) was > 100 µM (inactive), the GI50 (Malme-3M) was 82.4 µM (inactive) and the GI50 (IGROV-1) was 70 µM (inactive). For the same compound, the GI50 (SNB-19) was > 100 µM (inactive), the GI50 (UACC-62) was > 100 µM (inactive) and the GI50 (SN12C) was > 100 µM (inactive). The GI50 (HCT-116) was > 100 µM (inactive), the GI50 (MCF7) was > 100 µM (inactive) and the GI50 (SW-620) was > 100 µM (inactive). The GI50 (KM12) was > 100 µM (inactive), the GI50 (HT-29) was > 100 µM (inactive) and the GI50 (CAKI-1) was > 100 µM (inactive). For the same compound, the GI50 (EKVX) was 46 µM (inactive), the GI50 (M14) was > 100 µM (inactive) and the GI50 (786-0) was > 100 µM (inactive). For the same compound, the GI50 (SF-539) was > 100 µM (inactive), the GI50 (OVCAR-3) was > 100 µM (inactive) and the GI50 (NCI-H522) was > 100 µM (inactive). The GI50 (MDA-N) was > 100 µM (inactive), the GI50 (UACC-257) was > 100 µM (inactive) and the GI50 (PC-3) was > 100 µM (inactive). The GI50 (MDA-MB-435) was > 100 µM (inactive), the GI50 (A549) was > 100 µM (inactive) and the GI50 (RXF 393) was > 100 µM (inactive). For the same compound, the GI50 (MOLT-4) was > 100 µM (inactive), the GI50 (HCC 2998) was > 100 µM (inactive) and the GI50 (HCT-15) was greater than 100 µM. The GI50 (SR) was > 100 µM (inactive), the GI50 (ACHN) was > 100 µM (inactive) and the GI50 (NCI-H23) was > 100 µM (inactive). For the same compound, the GI50 (OVCAR-4) was > 100 µM (inactive), the GI50 (A498) was > 100 µM (inactive) and the GI50 (HOP-62) was > 100 µM (inactive). The GI50 (SK-MEL-28) was > 100 µM (inactive), the GI50 (LOX IMVI) was > 100 µM (inactive) and the GI50 (OVCAR-5) was > 100 µM (inactive). For the same compound, the GI50 (BT-549) was > 100 µM (inactive), the GI50 (Hs-578T) was > 100 µM (inactive) and the GI50 (NCI-H460) was > 100 µM (inactive). For the same compound, the GI50 (UO-31) was > 100 µM (inactive), the GI50 (COLO 205) was > 100 µM (inactive) and the GI50 (NCI/ADR-RES) was > 100 µM (inactive). The GI50 (OVCAR-8) was > 100 µM (inactive), the GI50 (U-251) was > 100 µM (inactive) and the GI50 (MDA-MB-231) was > 100 µM (inactive). For the same compound, the GI50 (K562) was 52.4 µM (inactive), the GI50 (TK-10) was > 100 µM (inactive) and the GI50 (SF-268) was > 100 µM (inactive). For the same compound, the GI50 (SF-295) was > 100 µM (inactive) and the GI50 (DU-145) was > 100 µM (inactive).
